Laboratory results: article PMC12488667, “Orodispersible films containing chestnut shell phenolics for buccal delivery: a preclinical approach for oral mucositis prevention” (Frontiers in Medical Technology, 2025)
“And” between values parts separate entries of the source, which are not always exact repeats. Equal entries are not always repeated. Where two headings read alike, the source gives them in different places. Marks after values point to notes of the source that are not given here. Blank lines part the entries; values can stand above or below the molecule they belong to.

Columns and labels:
[1] = Ex vivo permeation, Franz cells; assay type: in vitro ADME, porcine
Method: Porcine buccal mucosa was used to evaluate the buccal permeation of the phenolic compounds in the extract and the CS-loaded OFs (n = 9). The porcine buccal mucosa was purchased in a local butcher shop, not requiring ethical approval. A Franz cell assembly (9 mm clear jacketed Franz cell with a flat ground joint, 5 ml receptor volume, and permeation area of 0.785 cm^2; PermeGear, Inc., USA) was used. This experiment followed the methodology described by Rodrigues et al. ([32]). In the Franz apparatus, the porcine buccal mucosa was positioned with the cheek side facing the donor chamber, which contained 500 µl (1,000 μg/ml) of the CS extract or the CS-loaded OFs (two square films (2 × 2 cm) with […] of thickness were dissolved in 4 ml of artificial saliva; donor concentration was normalized to ensure equivalence between the extract solution and the film formulation). The receptor chamber was filled with 5 ml PBS, maintained at 37°C, and stirred continuously at 150 rpm. The volume was maintained through the experiments.
(§1) The identification and quantification of the phenolic compounds present in the extract and the OFs, as well as the compounds that permeated from the OFs through in vitro and ex vivo assays, were conducted using an LC-ESI-LTQ-Orbitrap-HRMS equipment with an Accela chromatograph (Thermo Scientific, Hemel Hempstead, UK), a photodiode array detector, a quaternary pump, and a temperature-controlled autosampler coupled to a high-resolution LTQ Orbitrap Velos mass spectrometer (Thermo Scientific, Hemel Hempstead, UK) with an ESI source in negative mode ([33], [34]). The system was controlled using the Xcalibur v3.0 software (ThermoFisher Scientific, Hemel Hempstead, UK). Elution was performed on an Acquity™ UPLC® BEH C18 Column (2.1 × 100 mm, i.d., 1.7 µm particle size, Waters Corporation, Wexford, Ireland) maintained at 30°C.
(§2) Gradient elution was performed with water (A) and acetonitrile (B), both with 0.1% formic acid, with a flow rate and injection volume of 450 µl/min and 5 µl, respectively. The solvent gradient (v/v) of B [t (min), %B] was set as follows: (0, 0), (2, 0), (4, 30), (8, 100), (10, 100), (11, 0), and (14, 0). The samples were analyzed in the full scan mode at a resolving power of 30,000 and m/z 600. Data-dependent MS/MS events were acquired at a resolution of 15,000. Most intense ions were detected via the FTMS mode-triggered data-dependent acquisition mode. Ions that were not sufficiently intense for a data-dependent scan were explored in MSn mode. Precursors were fragmented by collision-induced dissociation using a C-trap with a normalized collision energy (35 V) and an activation time of 10 ms. […] Compounds whose theoretical [M–H]^− values exceeded the MS¹ acquisition range (m/z 100–600) were annotated based on characteristic MSⁿ fragment ions detected within the scan window.
Quantitative analysis was performed by using a validated chromatographic method ([38]).

TR146 cells = test: In vitro permeation, buccal model; assay type: in vitro ADME, human
Method: The in vitro permeability of the bioactive compounds present in OFs (n = 9) was determined using a co-culture model composed of TR146 ([31]). The extract and the CS-loaded OFs were added to the apical side of the model as a stock solution. […] The Transepithelial Electrical Resistance (TEER) of the model was evaluated before, during, and at the end of the permeability assay using an EVOM Epithelial Volthometer equipped with a chopstick electrode (World Precision Instruments, Sarasota, FL, USA).
as §1, §2

- Quantification of permeated compounds ([1]; CS extract): 4.18 ± 0.26^a mg/ml
- Quantification of permeated compounds ([1]; CS-loaded OFs): 1.18 ± 0.09^a mg/g film
- Permeation (%) ([1]; from CS extract, 15 min): 37.21 ± 0.01^a %
- Permeation (%) ([1]; from CS extract, 30 min): 27.24 ± 0.23^a %
SMILES: N[C@@H](Cc1c[nH]c2ccccc12)C(=O)O [L-Tryptophan]

- Quantification of permeated compounds ([1]; CS extract): 1.93± 0.06^a mg/ml
- Quantification of permeated compounds ([1]; CS-loaded OFs): 0.87 ± 0.06^a mg/g film
- Permeation (%) ([1]; from CS extract, 15 min): 18.69 ± 0.04^a %
- Permeation (%) ([1]; from CS extract, 30 min): 17.60 ± 0.30^a %
SMILES: O=C(CCc1ccc(O)cc1)c1c(O)cc(O)cc1O[C@@H]1O[C@H](CO)[C@@H](O)[C@H](O)[C@H]1O [Phlorizin]

- Quantification of permeated compounds ([1]; CS extract): 93.48 ± 2.39^b mg/ml
- Quantification of permeated compounds ([1]; CS-loaded OFs): 11.84 ± 2.11^a mg/g film
- Permeation (%) ([1]; from CS extract, 15 min): 11.41 ± 0.03^a %
- Permeation (%) ([1]; from CS extract, 30 min): 9.47 ± 0.07^a %
- Permeation (%) ([1]; from CS-loaded OFs, 15 min): 98.93 ± 2.05^b %
- Permeation (%) ([1]; from CS-loaded OFs, 30 min): 97.59 ± 2.36^b %
SMILES: O=C(O)CCCCC(=O)O [Adipic acid]

- Permeation (%) (TR146 cells): 22.32 ± 0.12^a %
SMILES: COc1cc(C[C@@H](CO)[C@H](CO)Cc2ccc(O)c(OC)c2)ccc1O [Secoisolariciresinol]

The next lines start with the molecule.

SMILES: O=c1[nH]c(=O)c2[nH]cnc2[nH]1 [Xanthine]
- Permeation (%) ([1]; pig, 15 min, 1000 μg/ml): 6.94 ± 0.02^a %
- Permeation (%) ([1]; pig, 30 min, 1000 μg/ml): 6.48 ± 0.02^a %

SMILES: Oc1cc(O)c2c(c1)O[C@H](c1ccc(O)c(O)c1)[C@H](O)C2 [Epicatechin]
- Quantification of permeated compounds (TR146 cells; CS extract): 0.41 ± 0.03^a mg/ml
- Quantification of permeated compounds (TR146 cells; CS-loaded OFs): 0.36 ± 0.02^a mg/g film
- Permeation (%) (TR146 cells; from CS extract, 15 min): 97.57 ± 1.07^a %
- Permeation (%) (TR146 cells; from CS extract, 30 min): 96.86 ± 2.25^a %
- Permeation (%) (TR146 cells; from CS extract, 45 min): 97.35 ± 1.74^a %
- Permeation (%) (TR146 cells; from CS extract, 60 min): 98.05 ± 3.81^a %
- Permeation (%) (TR146 cells; from CS extract, 90 min): 97.75 ± 5.73^a %
- Permeation (%) (TR146 cells; from CS extract, 120 min): 97.73 ± 6.01^a %
- Permeation (%) (TR146 cells; from CS extract, 180 min): 97.36 ± 2.57^a %
- Permeation (%) (TR146 cells; from CS extract, 240 min): 96.86 ± 1.86^a %
- Permeation (%) (TR146 cells; from CS extract, 240 min, listed as epicatechin): 96.86%

SMILES: O=c1oc2c(O)c(O)cc3c(=O)oc4c(O)c(O)cc1c4c23 [Ellagic acid]
- Quantification of permeated compounds ([1]; CS extract): 7.15 ± 2.50^b mg/ml
- Quantification of permeated compounds ([1]; CS-loaded OFs): 1.27 ± 0.05^a mg/g film
- Permeation (%) ([1]; from CS extract, 15 min): 10.61 ± 0.08^a %
- Permeation (%) ([1]; from CS extract, 30 min): 6.26% and 6.26 ± 0.75^a %
- Permeation (%) ([1]; from CS-loaded OFs, 15 min): 35.46 ± 0.32^b %
- Permeation (%) ([1]; from CS-loaded OFs, 30 min): 60.75% and 60.75 ± 1.62^c %

SMILES: O=c1c(O[C@@H]2O[C@H](CO)[C@H](O)[C@H](O)[C@H]2O)c(-c2ccc(O)c(O)c2)oc2cc(O)cc(O)c12 [Quercetin 3-O-galactoside]
- Quantification of permeated compounds (TR146 cells; CS extract): 0.36 ± 0.01^a mg/ml
- Quantification of permeated compounds (TR146 cells; CS-loaded OFs): 0.36 ± 0.01^a mg/g film
- Permeation (%) (TR146 cells; from CS extract, 60 min): 49.94 ± 0.98^a %

SMILES: COc1cc(-c2oc3cc(O)cc(O)c3c(=O)c2O)ccc1O [Isorhamnetin]
- Quantification of permeated compounds (TR146 cells; CS extract): 0.38 ± 0.04^a mg/ml
- Quantification of permeated compounds (TR146 cells; CS-loaded OFs): 0.38 ± 0.01^a mg/g film
- Permeation (%) (TR146 cells; from CS extract, 15 min): 99.26 ± 2.34^a %
- Permeation (%) (TR146 cells; from CS extract, 30 min): 99.73 ± 1.83^a %
- Permeation (%) (TR146 cells; from CS extract, 45 min): 98.36 ± 3.74^a %
- Permeation (%) (TR146 cells; from CS extract, 60 min): 99.10 ± 2.96^a %
- Permeation (%) (TR146 cells; from CS extract, 90 min): 99.00 ± 4.70^a %
- Permeation (%) (TR146 cells; from CS extract, 120 min): 98.36 ± 1.07^a %
- Permeation (%) (TR146 cells; from CS extract, 180 min): 99.08 ± 2.69^a %
- Permeation (%) (TR146 cells; from CS extract, 240 min): 98.36 ± 1.91^a %
- Permeation (%) (TR146 cells; from CS extract, 240 min, listed as isorhamnetin): 98.36%
- Permeation (%) (TR146 cells; from CS-loaded OFs, 15 min): 105.62 ± 3.71^a %
- Permeation (%) (TR146 cells; from CS-loaded OFs, 30 min): 105.51 ± 3.25^a %
- Permeation (%) (TR146 cells; from CS-loaded OFs, 45 min): 105.05 ± 2.24^a %
- Permeation (%) (TR146 cells; from CS-loaded OFs, 60 min): 101.34 ± 2.95^a %
- Permeation (%) (TR146 cells; from CS-loaded OFs, 90 min): 98.29 ± 2.14^a %
- Permeation (%) (TR146 cells; from CS-loaded OFs, 120 min): 99.38 ± 1.47^a %
- Permeation (%) (TR146 cells; from CS-loaded OFs, 180 min): 98.29 ± 1.94^a %
- Permeation (%) (TR146 cells; from CS-loaded OFs, 240 min): 100.20 ± 3.56^a %
- Permeation (%) (TR146 cells; from CS-loaded OFs, 240 min, listed as isorhamnetin): 100.20%
